Results reported in PubChem BioAssay AID1159564 (GlaxoSmithKline (GSK), 2015).
Calls of active or inactive are those of the source. The rule behind the calls is not given here.

System: L. donovani-infected THP-1 macrophages, intracellular amastigote imaging
Assay: antileishmanial activity in infected THP-1 macrophages – imaging, THP-1 host macrophages, host toxicity (AID 1159564)
[1] = measured here: THP-1 host cell toxicity
[2] = measured here: amastigotes per macrophage

Row | SMILES | IC50 | IC50 [1] | IC50 [2]
1 | O=C(Nc1nc(-c2ccccn2)cs1)C1CCc2ccccc2C1 (stereo unspecified) | 0.63 µM | 7.9 µM | 0.4 µM
2 | NS(=O)(=O)c1ccc(Nc2ncc3cccc(OC4CCNCC4)c3n2)cc1 | 20 µM | 1 µM | 16 µM
3 | CN(C)Cc1ccc(-c2ccc(S(=O)(=O)NCC3CCCO3)c(F)c2)cc1 (stereo unspecified) | > 63 µM (inactive) | 63 µM | > 63 µM
4 | CN1CCN(c2nc(-c3ccc(Cl)cc3)c3c(N)n(C)nc3n2)CC1 | 40 µM | 40 µM | 32 µM
5 | O=C(Cc1ccccc1)Nc1ccccc1C(=O)Nc1nccs1 | > 50 µM (inactive) | > 50 µM | > 50 µM
6 | COc1cc(OC)cc(C(=O)N[C@@H](CC(C)C)C(=O)NC2(C#N)CC2)c1 | > 50 µM (inactive) | > 50 µM | > 50 µM
7 | c1ccc(Nc2nc3ccccc3[nH]2)nc1 | 7.9 µM | 25 µM | 7.9 µM
8 | CC(=O)Nc1ccc(-c2cnc(N)c(-c3nc4ccc(F)cc4[nH]3)c2)cc1 | 1 µM | 7.9 µM | 0.5 µM
9 | O=C(NC1C(=O)N(c2ccccc2)C1c1cccnc1)c1ccc(Cl)s1 (stereo unspecified) | > 50 µM (inactive) | > 50 µM | 0.79 µM
10 | Cn1c(CC(=O)NNC(=O)c2ccc3ccccc3n2)nc2ccccc21 | 1.3 µM | > 50 µM | 0.79 µM
11 | CN(C)c1ccc(-c2cc3nccnc3c(OC[C@H]3CCCNC3)n2)cn1 | 20 µM | 20 µM | 25 µM
12 | N#Cc1cccc(CNc2ccc(-c3cnn(CC4CC4)c(=O)c3C#N)cc2)c1 | 1.3 µM | 6.3 µM | 0.25 µM
13 | O=C(CN1CCN(S(=O)(=O)c2cccc([N+](=O)[O-])c2)CC1)Nc1ccc(Oc2ccccc2)cc1 | 7.9 µM | > 50 µM | 2 µM
14 | Cc1cc(Nc2ccc(C#N)c(Cl)c2C)n[nH]1 | > 50 µM (inactive) | 20 µM | > 50 µM
15 | COc1ccc2ncc(=O)n(CCN3CCOC(CNCc4ccc(C(F)(F)F)cc4F)C3)c2n1 (stereo unspecified) | > 50 µM (inactive) | > 50 µM | > 50 µM
16 | O=C(NCCc1csc(-c2ccc(F)cc2)n1)c1cccs1 | > 50 µM (inactive) | > 50 µM | 20 µM
17 | CN(CCOc1ccc(Cl)cc1)Cc1nc(N)nc(N(C)C)n1 | 7.9 µM | > 50 µM | 5 µM
18 | CC(C(=O)Nc1ccc(Br)cc1)N1CCN(c2ccc([N+](=O)[O-])cc2)CC1 (stereo unspecified) | > 50 µM (inactive) | > 50 µM | > 50 µM
19 | OC[C@@H](Nc1nccc(-c2c(-c3ccc(F)cc3)ncn2C2CCNCC2)n1)c1ccccc1 | 32 µM | 32 µM | 32 µM
20 | COc1ccc(C(=O)Nc2ccc(NC(=O)CO)cc2)cc1 | > 50 µM (inactive) | 20 µM | > 50 µM
21 | COc1ccc(NS(=O)(=O)c2ccc(S(=O)(=O)N(C)C3CCCCC3)cc2)c2ncccc12 | 0.32 µM | > 50 µM | 0.16 µM
22 | CN(C)CCOc1ccc(N2CCN(S(=O)(=O)c3ccc(Cl)cc3)CC2)cc1 | 32 µM | > 50 µM | 32 µM
23 | O=C(NCc1nnc2n1CCCCC2)c1csc(-c2ccccc2)n1 | > 50 µM (inactive) | > 50 µM | > 50 µM
24 | COc1cccc(C(=O)[C@H]2C[C@@H]2CN(Cc2cccnc2)Cc2cccnc2)c1 | > 50 µM (inactive) | 40 µM | 7.9 µM
25 | Cc1[nH]n2c(=O)c3c(nc2c1-c1ccc(Br)cc1)CCCC3 | > 50 µM (inactive) | > 50 µM | 40 µM
26 | CCN(Cc1nc2ccc(C(=O)N3CCN(c4ncccn4)CC3)cc2[nH]1)C1CCCc2cccnc21 (stereo unspecified) | 4 µM | 20 µM | 1.6 µM
27 | CCc1cccc(CC)c1-n1c(SCC(=O)N2CC(=O)Nc3ccccc32)nnc1-c1cccnc1 | > 50 µM (inactive) | > 50 µM | > 50 µM
